Source: ChEMBL document CHEMBL1150218, “Antitubercular activity of triterpenoids from Lippia turbinata” (J Nat Prod, 2001)
≈ marks a conversion by molar mass, not a printed value.

The compounds below were run on Mycobacterium tuberculosis (assay: Antitubercular activity against Mycobacterium tuberculosis H37Rv ATCC 27294 by radiometric BACTEC 460 system). Conditions: not given.
Type: functional

Structure (SMILES) | MIC
CCC(C)C(=O)O[C@@H]1CC(C)(C)C[C@H]2C3=CC[C@@H]4[C@]56CC[C@](O)(OC5)C(C)(C)[C@@H]6CC[C@@]4(C)[C@]3(C)CC[C@@]12C(=O)O (stereo not given in full) | 128 µM (≈ 73.1 µg/mL)
C/C=C(\C)C(=O)O[C@@H]1[C@@H](O)C(C)(C)C[C@H]2C3=CC[C@@H]4[C@]56CC[C@](O)(OC5)C(C)(C)[C@@H]6CC[C@@]4(C)[C@]3(C)CC[C@@]12C(=O)O | 128 µM (≈ 74.9 µg/mL)
C/C=C(/C)C(=O)O[C@@H]1[C@@H](O)C(C)(C)C[C@H]2C3=CC[C@@H]4[C@]56CC[C@](O)(OC5)C(C)(C)[C@@H]6CC[C@@]4(C)[C@]3(C)CC[C@@]12C(=O)O | 64 µM (≈ 37.4 µg/mL)
CC(C)=CC(=O)O[C@@H]1[C@@H](O)C(C)(C)C[C@H]2C3=CC[C@@H]4[C@]56CC[C@](O)(OC5)C(C)(C)[C@@H]6CC[C@@]4(C)[C@]3(C)CC[C@@]12C(=O)O | 128 µM (≈ 74.9 µg/mL)
C/C=C(/C)C(=O)O[C@@H]1CC(C)(C)C[C@H]2C3=CC[C@@H]4[C@]56CC[C@@](O)(OC5)C(C)(C)[C@@H]6CC[C@@]4(C)[C@]3(C)CC[C@@]12C(=O)O [CAMARIC ACID] | 64 µM (≈ 36.4 µg/mL)
C/C=C(/C)C(=O)O[C@@H]1CC(C)(C)C[C@H]2C3=CC[C@@H]4[C@@]5(C)CCC(=O)C(C)(C)[C@@H]5CC[C@@]4(C)[C@]3(C)CC[C@@]12C(=O)O [LANTADENE A] | 32 µM (≈ 17.7 µg/mL)
CC(C)=CC(=O)O[C@@H]1CC(C)(C)C[C@H]2C3=CC[C@@H]4[C@]56CC[C@@](O)(OC5)C(C)(C)[C@@H]6CC[C@@]4(C)[C@]3(C)CC[C@@]12C(=O)O [LANTANILIC ACID] | > 128 µM
CC1(C)CC[C@]2(C(=O)O)CC[C@]3(C)C(=CC[C@@H]4[C@]56CC[C@@](O)(OC5)C(C)(C)[C@@H]6CC[C@]43C)[C@@H]2C1 [LANTANOLIC ACID] | > 128 µM
CO[C@H]1/C=C/O[C@@]2(C)Oc3c(C)c(O)c4c(O)c(c(/C=N/N5CCN(C)CC5)c(O)c4c3C2=O)NC(=O)/C(C)=C\C=C\[C@H](C)[C@H](O)[C@@H](C)[C@@H](O)[C@@H](C)[C@H](OC(C)=O)[C@@H]1C [RIFAMPIN] | 0.3 µM (≈ 0.247 µg/mL)

The compounds below were run on Vero (assay: Cytotoxicity against african green monkey Vero cells). Conditions: Chlorocebus sabaeus.
Type: cell-based

Structure (SMILES) | IC50
C/C=C(/C)C(=O)O[C@@H]1CC(C)(C)C[C@H]2C3=CC[C@@H]4[C@@]5(C)CCC(=O)C(C)(C)[C@@H]5CC[C@@]4(C)[C@]3(C)CC[C@@]12C(=O)O [LANTADENE A] | 15 µM
